According to patent US20200375980A1, “VETERINARY ANTIPROLACTINIC COMPOSITION” (CEVA SANTE ANIMALE, priority 2018, published 2020):

System: Primiparous sows
Assay: Proof of concept study, WOI (weaning to oestrus interval) in primiparous sows
Type: in vivo, Sus scrofa domesticus
Procedure: All sows included in this study were recruited from a single farm having an historical mean of WOI of 5.4 days, and a percentage of delayed oestrus (8 days) of 7.9%. Weaning was set after about 3 weeks of lactation. Primiparous sows (with normal health status and normal farrowing) were allocated into three groups: Cab_0 (n=19 sows): 5.6 μg/kg of cabergoline by intramuscular injection at weaning day (day 0) in sows, i.e. at the end of lactation, without suckling piglets. Cab_2 (n=30 sows): 5.6 μg/kg of cabergoline by intramuscular injection 2 days before weaning (day-2) in sows, i.e. lactation still pending with suckling piglets. Negative control group (n=29 sows): equivalent dose/volume of a ‘true’ placebo by intramuscular injection at Day-2 and day 0.

[1] = group Cab_0: 5.6 μg/kg intramuscular at weaning day (day 0)
[2] = group Cab_0: 5.6 μg/kg intramuscular at weaning day (day 0), n=19 sows
[3] = group Cab_2: 5.6 μg/kg intramuscular 2 days before weaning (day-2), n=30 sows

Which results are given for C=CCN1C[C@H](C(=O)N(CCCN(C)C)C(=O)NCC)C[C@@H]2c3cccc4[nH]cc(c34)C[C@H]21 [cabergoline, 1-[(6-allylergolin-8ß-yl)-carbonyl]-1-[3-(dimethylamino)propyl]-3-ethylurea]?
impact of the treatment on fertility (all sows diagnosed positively pregnant after artificial insemination following oestrus detection, Cab_0 and Cab_2 groups): no negative impact; sows exhibiting delayed oestrus (after or equal 8 days), number of sows per group [1]: 1/19; sows exhibiting delayed oestrus (after or equal 8 days), percentage [1]: 5.3%; number of sows in heats, WOI 8-14 days [2]: 1; number of sows in heats, WOI 3 days [2]: 1; number of sows in heats, WOI 4 days [2]: 6; number of sows in heats, WOI 5 days [2]: 8; number of sows in heats, WOI 6 days [2]: 2; number of sows in heats, WOI 7 days [2]: 1; delayed oestrus (after or equal 8 days) (group Cab_2: 5.6 μg/kg intramuscular 2 days before weaning (day-2)): no delayed oestrus; number of sows in heats, WOI 3 days [3]: 2; number of sows in heats, WOI 4 days [3]: 13; number of sows in heats, WOI 5 days [3]: 10; number of sows in heats, WOI 6 days [3]: 5; number of sows in heats, WOI 7 days [3]: 0
